Laboratory results as given in ChEMBL document CHEMBL3414511, “Synthesis of a novel class of substituted benzothiophene or benzofuran derivatives as BMP-2 up-regulators and evaluation of the BMP-2-up-regulating effects in vitro and the effects on glucocorticoid-induced osteoporosis in rats” (Eur J Med Chem, 2015).
The source made the active and inactive calls. The rule behind the calls is not given here.

What was measured:
Rattus norvegicus [1] = assay: Toxicity in glucocorticoid-induced Wistar rat osteoporosis model assessed as white blood cells at 30 mg/kg/day, po administered six times a week for 3 months (reference value: 6.28 +/- 2.78 x 10^9/L); type: organism-based; parameters: route oral; details: in vivo
Rattus norvegicus [2] = assay: Toxicity in glucocorticoid-induced Wistar rat osteoporosis model assessed as lymph level at 30 mg/kg/day, po administered six times a week for 3 months (reference value: 50.35 +/- 12.96%); type: organism-based; parameters: route oral; details: in vivo
Rattus norvegicus [3] = assay: Toxicity in glucocorticoid-induced Wistar rat osteoporosis model assessed as neutrophilic granulocytes level at 30 mg/kg/day, po administered six times a week for 3 months (reference value: 31.95 +/- 8.33%); type: organism-based; parameters: route oral; details: in vivo
Rattus norvegicus [4] = assay: Toxicity in glucocorticoid-induced Wistar rat osteoporosis model assessed as effect on red blood cells at 30 mg/kg/day, po administered six times a week for 3 months; type: organism-based; parameters: route oral; details: in vivo
Rattus norvegicus [5] = assay: Toxicity in glucocorticoid-induced Wistar rat osteoporosis model assessed as effect on hemoglobin at 30 mg/kg/day, po administered six times a week for 3 months; type: organism-based; parameters: route oral; details: in vivo
Rattus norvegicus [6] = assay: Toxicity in glucocorticoid-induced Wistar rat osteoporosis model assessed as effect on red blood cell specific volume at 30 mg/kg/day, po administered six times a week for 3 months; type: organism-based; parameters: route oral; details: in vivo
Rattus norvegicus [7] = assay: Toxicity in glucocorticoid-induced Wistar rat osteoporosis model assessed as effect on mean corpuscular volume at 30 mg/kg/day, po administered six times a week for 3 months; type: organism-based; parameters: route oral; details: in vivo
Rattus norvegicus [8] = assay: Toxicity in glucocorticoid-induced Wistar rat osteoporosis model assessed as effect on mean corpuscular hemoglobin concentration at 30 mg/kg/day, po administered six times a week for 3 months; type: organism-based; parameters: route oral; details: in vivo
Rattus norvegicus [9] = assay: Toxicity in glucocorticoid-induced Wistar rat osteoporosis model assessed as effect on red blood cell distribution width at 30 mg/kg/day, po administered six times a week for 3 months; type: organism-based; parameters: route oral; details: in vivo
Rattus norvegicus [10] = assay: Toxicity in glucocorticoid-induced Wistar rat osteoporosis model assessed as effect on platelets at 30 mg/kg/day, po administered six times a week for 3 months; type: organism-based; parameters: route oral; details: in vivo
[11] = Upregulation of BMP-2 expression in mouse MC3T3-E1 cells at 4 uM after 24 hrs by luciferase reporter gene assay relative to control; type: functional, cell-based
Rattus norvegicus [12] = assay: Toxicity in glucocorticoid-induced Wistar rat osteoporosis model assessed as aspartate transaminase level at 30 mg/kg/day, po administered six times a week for 3 months (reference value: 177.55 +/- 116.98 U/L); type: organism-based; parameters: route oral; details: in vivo
Rattus norvegicus [13] = assay: Toxicity in glucocorticoid-induced Wistar rat osteoporosis model assessed as alanine transaminase level at 30 mg/kg/day, po administered six times a week for 3 months (reference value: 43.73 +/- 36.21 U/L); type: organism-based; parameters: route oral; details: in vivo
Rattus norvegicus [14] = assay: Toxicity in glucocorticoid-induced Wistar rat osteoporosis model assessed as triglycerides level at 30 mg/kg/day, po administered six times a week for 3 months (reference value: 1.13 +/- 0.69 mmol/L); type: organism-based; parameters: route oral; details: in vivo
Rattus norvegicus [15] = assay: Toxicity in glucocorticoid-induced Wistar rat osteoporosis model assessed as effect on total bilirubin level at 30 mg/kg/day, po administered six times a week for 3 months; type: organism-based; parameters: route oral; details: in vivo
Rattus norvegicus [16] = assay: Toxicity in glucocorticoid-induced Wistar rat osteoporosis model assessed as effect on total protein level at 30 mg/kg/day, po administered six times a week for 3 months; type: organism-based; parameters: route oral; details: in vivo
Rattus norvegicus [17] = assay: Toxicity in glucocorticoid-induced Wistar rat osteoporosis model assessed as effect on albumin level at 30 mg/kg/day, po administered six times a week for 3 months; type: organism-based; parameters: route oral; details: in vivo
Rattus norvegicus [18] = assay: Toxicity in glucocorticoid-induced Wistar rat osteoporosis model assessed as effect on blood urea nitrogen level at 30 mg/kg/day, po administered six times a week for 3 months; type: organism-based; parameters: route oral; details: in vivo
Rattus norvegicus [19] = assay: Toxicity in glucocorticoid-induced Wistar rat osteoporosis model assessed as effect on creatinine level at 30 mg/kg/day, po administered six times a week for 3 months; type: organism-based; parameters: route oral; details: in vivo
Rattus norvegicus [20] = assay: Toxicity in glucocorticoid-induced Wistar rat osteoporosis model assessed as effect on glucose level at 30 mg/kg/day, po administered six times a week for 3 months; type: organism-based; parameters: route oral; details: in vivo
[21] = Acute toxicity in po dosed Kunming mouse administered for 3 days measured during compound dosing and following 14 days; type: organism-based; details: in vivo
Rattus norvegicus [22] = assay: Antiosteoporotic activity in glucocorticoid-induced Wistar rat osteoporosis model assessed as densed trabecula at 30 mg/kg/day, po administered six times a week for 3 months by toluidine blue staining-based light microscopic analysis relative to dexamethasone; type: functional, organism-based
Rattus norvegicus [23] = assay: Antiosteoporotic activity in glucocorticoid-induced Wistar rat osteoporosis model assessed as trabecular bone volume at 30 mg/kg/day, po administered six times a week for 3 months by fluorescence assay (reference value: 33.09 +/- 5.15%); type: functional, Trabecula
Rattus norvegicus [24] = assay: Antiosteoporotic activity in glucocorticoid-induced Wistar rat osteoporosis model assessed as trabecula formation surface at 30 mg/kg/day, po administered six times a week for 3 months by fluorescence assay (reference value: 7.82 +/- 2.46%); type: functional
Rattus norvegicus [25] = assay: Antiosteoporotic activity in glucocorticoid-induced Wistar rat osteoporosis model assessed as trabecula resorption surface at 30 mg/kg/day, po administered six times a week for 3 months by fluorescence assay (reference value: 7.22 +/- 2.04%); type: functional
Rattus norvegicus [26] = assay: Antiosteoporotic activity in glucocorticoid-induced Wistar rat osteoporosis model assessed as mineral apposition rate at 30 mg/kg/day, po administered six times a week for 3 months by fluorescence assay (reference value: 1.06 +/- 0.27 micrometer/day); type: functional
Mus musculus [27] = assay: Acute toxicity in Kunming mouse assessed as behavioral changes at 700 mg/kg, po administered for 3 days measured during compound dosing and following 14 days; type: organism-based; parameters: dose 700 mg/kg, route oral; details: in vivo, 336 h
Mus musculus [28] = assay: Acute toxicity in Kunming mouse assessed as shiny fur at 700 mg/kg, po administered for 3 days measured during compound dosing and following 14 days; type: organism-based; parameters: dose 700 mg/kg, route oral; details: in vivo, 336 h
[29] = Upregulation of BMP-2 expression in mouse MC3T3-E1 cells at 0.4 uM after 24 hrs by luciferase reporter gene assay relative to control; type: functional, cell-based
Mus musculus [30] = assay: Acute toxicity in Kunming mouse assessed as behavioral changes at 500 mg/kg, po administered for 3 days measured during compound dosing and following 14 days; type: organism-based; parameters: dose 500 mg/kg, route oral; details: in vivo, 336 h
Mus musculus [31] = assay: Acute toxicity in Kunming mouse assessed as shiny fur at 500 mg/kg, po administered for 3 days measured during compound dosing and following 14 days; type: organism-based; parameters: dose 500 mg/kg, route oral; details: in vivo, 336 h
Rattus norvegicus [32] = assay: Antiosteoporotic activity in glucocorticoid-induced Wistar rat osteoporosis model assessed as increase in trabecula number at 30 mg/kg/day, po administered six times a week for 3 months by toluidine blue staining-based light microscopic analysis relative to dexamethasone; type: functional, organism-based
Rattus norvegicus [33] = assay: Antiosteoporotic activity in glucocorticoid-induced Wistar rat osteoporosis model assessed as increase in trabecula thickness at 30 mg/kg/day, po administered six times a week for 3 months by toluidine blue staining-based light microscopic analysis relative to dexamethasone; type: functional, organism-based
Rattus norvegicus [34] = assay: Antiosteoporotic activity in glucocorticoid-induced Wistar rat osteoporosis model assessed as increase in trabecula area at 30 mg/kg/day, po administered six times a week for 3 months by toluidine blue staining-based light microscopic analysis relative to dexamethasone; type: functional, organism-based
Rattus norvegicus [35] = assay: Antiosteoporotic activity in glucocorticoid-induced Wistar rat osteoporosis model assessed as increase in trabecula connectivity at 30 mg/kg/day, po administered six times a week for 3 months by toluidine blue staining-based light microscopic analysis relative to dexamethasone; type: functional, organism-based

| Compound | Activity (Rattus norvegicus [1]) [×10⁹ /L] | Activity (Rattus norvegicus [2]) [%] | Activity (Rattus norvegicus [3]) [%] | Activity (Rattus norvegicus [4]) | Activity (Rattus norvegicus [5]) | Activity (Rattus norvegicus [6]) | Activity (Rattus norvegicus [7]) | Activity (Rattus norvegicus [8]) | Activity (Rattus norvegicus [9]) | Activity (Rattus norvegicus [10]) | Activity (Rattus norvegicus [12]) [U/L] | Activity (Rattus norvegicus [13]) [U/L] | Activity (Rattus norvegicus [14]) [mmol/L] | Activity (Rattus norvegicus [15]) | Activity (Rattus norvegicus [16]) | Activity (Rattus norvegicus [17]) | Activity (Rattus norvegicus [18]) | Activity (Rattus norvegicus [19]) | Activity (Rattus norvegicus [20]) | LD50 at 336 h [21] [mg/kg] | also measured |
| --- | --- | --- | --- | --- | --- | --- | --- | --- | --- | --- | --- | --- | --- | --- | --- | --- | --- | --- | --- | --- | --- |
| COC(=O)c1ccc2cc(C(C)=O)sc2c1 | 4.52 | 34.98 | 48.93 | Non-toxic | Non-toxic | Non-toxic | Non-toxic | Non-toxic | Non-toxic | Non-toxic | 119.08 | 31.55 | 0.52 | Non-toxic | Non-toxic | Non-toxic | Non-toxic | Non-toxic | Non-toxic | > 700 | Activity [11]: 85.2%; Activity (Rattus norvegicus [22]): Active; Activity (Rattus norvegicus [23]): 24.72%; Activity (Rattus norvegicus [24]): 5.95%; Activity (Rattus norvegicus [25]): 9.52%; Activity (Rattus norvegicus [26]): 0.99 micrometer/day; Activity (Mus musculus [27]): Non-toxic; Activity (Mus musculus [28]): Non-toxic |
| CC[C@H](C)C(=O)O[C@H]1C[C@@H](C)C=C2C=C[C@H](C)[C@H](CC[C@@H]3C[C@@H](O)CC(=O)O3)[C@H]21 | – | – | – | – | – | – | – | – | – | – | – | – | – | – | – | – | – | – | – | – | Activity [29]: 20.9% |
| CCOC(=O)c1cc2cc3c(cc2s1)OCO3 | 3.27 | 46.29 | 41.49 | Non-toxic | Non-toxic | Non-toxic | Non-toxic | Non-toxic | Non-toxic | Non-toxic | 114.82 | 28.27 | 0.34 | Non-toxic | Non-toxic | Non-toxic | Non-toxic | Non-toxic | Non-toxic | > 500 | Activity (Rattus norvegicus [22]): Active; Activity (Rattus norvegicus [23]): 22.07%; Activity (Rattus norvegicus [24]): 5.72%; Activity (Rattus norvegicus [25]): 9.43%; Activity (Rattus norvegicus [26]): 0.95 micrometer/day; Activity (Mus musculus [30]): Non-toxic; Activity (Mus musculus [31]): Non-toxic |
| CC(=O)c1cc2cc(C(=O)O)ccc2s1 | 3.31 | 36.73 | 47.71 | Non-toxic | Non-toxic | Non-toxic | Non-toxic | Non-toxic | Non-toxic | Non-toxic | 103.17 | 26.67 | 0.62 | Non-toxic | Non-toxic | Non-toxic | Non-toxic | Non-toxic | Non-toxic | > 500 | Activity [11]: 93.2%; Activity (Rattus norvegicus [22]): Active; Activity (Rattus norvegicus [23]): 23.13%; Activity (Rattus norvegicus [24]): 5.03%; Activity (Rattus norvegicus [25]): 10.3%; Activity (Rattus norvegicus [26]): 1.03 micrometer/day; Activity (Mus musculus [30]): Non-toxic; Activity (Mus musculus [31]): Non-toxic |
| CCOC(=O)c1cc2ccc(C(=O)OC)cc2s1 | 3.03 | 46.39 | 40.03 | Non-toxic | Non-toxic | Non-toxic | Non-toxic | Non-toxic | Non-toxic | Non-toxic | 124.42 | 26.25 | 0.36 | Non-toxic | Non-toxic | Non-toxic | Non-toxic | Non-toxic | Non-toxic | > 700 | Activity [11]: 123%; Activity (Rattus norvegicus [32]): Active; Activity (Rattus norvegicus [33]): Active; Activity (Rattus norvegicus [34]): Active; Activity (Rattus norvegicus [35]): Active; Activity (Rattus norvegicus [23]): 28.61%; Activity (Rattus norvegicus [24]): 6.69%; Activity (Rattus norvegicus [25]): 8.92%; Activity (Rattus norvegicus [26]): 1.13 micrometer/day; Activity (Mus musculus [27]): Non-toxic; Activity (Mus musculus [28]): Non-toxic |
